The source of these data is patent publication US20050226135A1, “Write-once information recording medium” (KABUSHIKI KAISHA TOSHIBA, priority 2004, published 2005).

The data set can be described thus: solubility in an organic solvent at 20° C. by an ordinary method. The data set is classed as physicochemical. The conditions noted are these: organic solvents of amide, alcohol, ketone, nitrile and halogen systems (chloroform, N,N-dimethyl formamide, methanol, 2,2,3,3-tetrafluoro-1-propanol, ethyl methyl ketone, acetonitrile).

Turning to `COc1ccc(OC)c(/N=N/C(=N\[N]([Ni][N](/N=C(\N=N\c2cc(OC)ccc2OC)c2ccccn2)c2ccc([N+](=O)[O-])cn2)c2ccc([N+](=O)[O-])cn2)c2ccccn2)c1` [chemical formula 3], the “solubility in an organic solvent” value is recorded as “practically applicable solubility”.
